Three molecules from patent US6641840B2, “Sustained release formulations for growth hormone secretagogues” (Pfizer Inc., priority 2000, dated 2003) can be followed below.

Where no end group is shown, it is not given here. [ ]: non-standard residue; d: D form.

Assay [1] deals with rat pituitary cells. The assay is described as follows: Pituitary cell desensitization - intracellular calcium assay. The assay is classed as cell-based. The text has this:
Thus, it appears that sustained release formulations would not provide the desired in vivo response. The experiment was designed so that changes in intracellular calcium concentration could be continuously monitored during successive exposures of the same cells to the indicated test substances.
Rat pituitary cells were isolated as described in Example 3 and plated onto poly-D-lysine-coated glass coverslips, one coverslip per well in 12-well plates, at a density of 3-4×10^5 cells per well. Assays were performed 3-4 days after plating. Cells were loaded with 5 μM fura-2 AM (Molecular Probes, Eugene, Oreg.), a calcium-sensitive fluorescent dye, by incubation for 30 min at room temperature. Fura-2 was dissolved in dimethylsulfoxide at 5 mM, then diluted into KRH buffer (115 mM NaCl, 5.4 mM KCl, 1.8 mM CaCl2, 1 mM MgCl2, 0.96 mM NaH2PO4, 25 mM HEPES, 6 mM glucose and 0.05% bovine serum albumin, adjusted to pH 7.3)
To assay changes in intracellular calcium concentration, a coverslip with attached cells was mounted in a perfusion chamber on the stage of an inverted microscope (Zeiss Axiovert 135 with epifluorescence, Geschaftsbereich Mikroscopie, Oberkochen, Germany) and continuously superfused at room temperature. After superfusion with KRH for 1-2 min, baseline fluorescence was recorded. Each test substance was applied for 2 min, followed by washout with KRH prior to stimulation with the next test substance. Up to 20 individual cells per field were selected for recording and were excited alternately at wavelengths of 380 nm or 340 nm (slit width 15 nm). Fluorescence emission at 510 nm was collected at 5 sec intervals by a low light CCD camera (Hamamatsu Photonics, Hamamatsu City, Japan), and digitized images for the two excitation wavelengths were analyzed using Videoprobe software (ETM Systems, Irvine, Calif.) to determine the 340 nm/380 nm fluorescence ratio for individual cells during each time interval. The 340 nm/380 nm fluorescence ratio is proportional to the concentration of intracellular calcium.
(In general: Calcium assays in cells follow changes in intracellular calcium, usually with a dye or a luminescent sensor.)

The subject of assay [2] is rat pituitary cells. The assay is described as follows: Pituitary cell desensitization - growth hormone release assay. It is filed as cell-based. The protocol:
The experiment was designed so that cultures were exposed to a growth hormone secretagogue for 60 min, then growth hormone release was measured during a subsequent 15 min exposure to the same or different growth hormone secretagogue.
Anterior pituitary glands from male Wistar rats (150-175 g, Charles River, Laboratories, Wilmington, Mass.) were collected in Hank's Balanced Salt Solution (#14170, Life Technologies, Gaithersburg, Md.). Glands were minced with a scalpel, then incubated with bacterial protease (Type IX, EC3.4.24.4, #P-6141, Sigma Chemicals, Milwaukee, Wis.) at 10 U/ml to release individual cells. Cells were pelleted by centrifugation at 200×g for 15 min, then suspended in culture medium and plated at a density of 6.0-6.5×10^4 cells per 0.5 ml per well in 48-well tissue culture plates (#3848, Costar Corporation, Cambridge, Mass.). Culture medium consisted of D-MEM (Dulbecco's Modified Eagle Medium) with high glucose and sodium bicarbonate (#11965) supplemented with 10% heat-inactivated horse serum (#26050, Life Technologies, Gaithersburg, Md.), 2.5% fetal bovine serum (#16140, Life Technologies, Gaithersburg, Md.), 0.1 mM MEM non-essential amino acids (#11140, Life Technologies, Gaithersburg, Md.), 100 U/ml nystatin (#15340, Life Technologies, Gaithersburg, Md.) and 50 ug/ml gentamicin sulfate (#15750, Life Technologies, Gaithersburg, Md.). Cultures were maintained for 3-4 days in a humidified, 5% CO2/95% air incubator at 37° C. prior to performing assays for growth hormone release.
For growth hormone release assays, cultures were pre-equilibrated at 37° C. in pre-warmed release medium for 1 h in the presence of a growth hormone secretagogue or excipient (Pretreatment). Release medium consisted of Phenol Red-free D-MEM without bicarbonate (#23800, Life Technologies, Gaithersburg, Md.) supplemented with 25 mM N-[2-hydroxyethyl]piperazine-N′-[2-ethanesulfonic acid] (HEPES), 4.5 g/L glucose, 0.11 g/L sodium pyruvate, 0.584 g/L […] and 0.5% bovine serum albumin (#A-7888, Sigma Chemicals, Milwaukee, Wis.), adjusted to pH 7.4. After pretreatment, the medium was removed and replaced with fresh pre-warmed release medium containing a growth hormone secretagogue or excipient at 0.5 ml/well for 15 min (Treatment). Medium from the Treatment was collected, centrifuged to remove any cells, then assayed for growth hormone content by a conventional double-antibody radioimmunoassay using monkey anti-growth hormone antisera (NIDDK anti-rGH-S-5) and reference rat growth hormone standard (NIDDK-rGH-RP) from Dr. A. F. Parlow, Harbor-UCLA Medical Center, Torrance, Calif. Immune complexes were precipitated using goat anti-monkey immunoglobulin G (#55418, Cappel, Durham, N.C.).
Growth hormone secretagogue solutions were prepared at 1000 times the desired concentration and diluted into pre-warmed release medium immediately before use. Peptides such as His-D-Trp-Ala-Trp-Ala-Trp-D-Phe-Lys-NH2 (GHRP-6, #8061, Peninsula Laboratories, Belmont, Calif.) and rat growth hormone releasing factor (GHRH, #8068, Peninsula Laboratories, Belmont, Calif.) were dissolved at 100 μM in 4 mM acetic acid, 10% ethanol, 0.1% bovine serum albumin; other growth hormone secretagogues were dissolved at 5 mM in dimethyl sulfoxide.

Regarding `[Cl-].[K+]` [KCl, reference compound], the “response of the same (refractory) cells” value with rat pituitary cells [1] (after re-exposure to Compound A) is on record as “remained responsive”.
Turning to “GHRH: rat growth hormone releasing factor (GHRH, #8068, Peninsula Laboratories) (HADAIFTSSYRRILGQLYARKLLHEIMNRQQGERNQEQRSRFN; Somatoliberin; UniProt P09916 31-73, looked up) [reference compound]”, the GH release in the assay on rat pituitary cells [2] (pretreatment 100 nM GHRH 60 min, treatment none) was found to be 12.67 ± 3.31 ng/mL/15 min.
With “H[dW]AWAW[dF]K-NH2 [GHRP-6, reference compound]”, the GH release in the assay on rat pituitary cells [2] (pretreatment 100 nM GHRP-6 60 min, treatment 100 nM GHRP-6 15 min) came out at 7.83 ± 0.98 ng/mL/15 min; in the assay on rat pituitary cells [2] (pretreatment 100 nM GHRP-6 60 min, treatment none), 9.06 ± 1.87 ng/mL/15 min; with rat pituitary cells [2] (pretreatment none, treatment 100 nM GHRP-6 15 min, mean ± SD, n = 4), 31.01 ± 8.46 ng/mL/15 min. Moreover, in the assay with rat pituitary cells [1] (successive 2 min exposures with washout), the “cellular responses (intracellular calcium) on repeated exposure” value is “homologous desensitization”.
